Consider 3 molecules from PMC5543128 (Scientific Reports, 2017).

Molecules are shown by their SMILES. Entries after “also recorded” stand apart in the source; their conditions may differ. Where a SMILES comes first, the peptide text is derived from it. Bridges are numbered along the chain shown (N, C = ends). [ ]: non-standard residue; d: D form. Hyp = O=C(O)[C@@H]1C[C@@H](O)CN1 Some results are limits rather than exact numbers.

Data set [1] has as its target Torpedo muscle-type nicotinic acetylcholine receptors (nAChRs) (Tetronarce californica, UniProt P02710+P02714+P02718). The class given is binding.
Data set [2] concerns hemidiaphragm muscle. Details: species or system mouse.
The test system of data set [3] is isolated mouse phrenic-hemidiaphragm nerve-muscle preparations. The following applies: for IC50: pH 7.4.
Data set [4] has as its system mice. The following applies: mouse, in vivo, ip.
The test system of data set [5] is mice. The following applies: mouse, in vivo.

Sequence of Torpedo muscle-type nicotinic acetylcholine receptors (nAChRs) (P02710 whole entry, looked up): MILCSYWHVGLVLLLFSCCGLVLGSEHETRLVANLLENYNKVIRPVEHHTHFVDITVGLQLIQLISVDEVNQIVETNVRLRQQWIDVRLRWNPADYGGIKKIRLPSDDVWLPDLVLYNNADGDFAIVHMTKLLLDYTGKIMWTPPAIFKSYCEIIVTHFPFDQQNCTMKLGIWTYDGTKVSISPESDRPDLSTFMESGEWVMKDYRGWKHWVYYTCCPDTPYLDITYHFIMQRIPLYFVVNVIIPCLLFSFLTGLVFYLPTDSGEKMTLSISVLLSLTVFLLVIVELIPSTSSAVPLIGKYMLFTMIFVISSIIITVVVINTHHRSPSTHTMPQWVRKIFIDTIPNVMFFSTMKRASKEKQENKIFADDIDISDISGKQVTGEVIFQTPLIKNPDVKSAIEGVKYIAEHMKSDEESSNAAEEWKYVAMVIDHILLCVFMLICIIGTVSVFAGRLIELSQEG
Sequence of Torpedo muscle-type nicotinic acetylcholine receptors (nAChRs) (P02714 whole entry, looked up): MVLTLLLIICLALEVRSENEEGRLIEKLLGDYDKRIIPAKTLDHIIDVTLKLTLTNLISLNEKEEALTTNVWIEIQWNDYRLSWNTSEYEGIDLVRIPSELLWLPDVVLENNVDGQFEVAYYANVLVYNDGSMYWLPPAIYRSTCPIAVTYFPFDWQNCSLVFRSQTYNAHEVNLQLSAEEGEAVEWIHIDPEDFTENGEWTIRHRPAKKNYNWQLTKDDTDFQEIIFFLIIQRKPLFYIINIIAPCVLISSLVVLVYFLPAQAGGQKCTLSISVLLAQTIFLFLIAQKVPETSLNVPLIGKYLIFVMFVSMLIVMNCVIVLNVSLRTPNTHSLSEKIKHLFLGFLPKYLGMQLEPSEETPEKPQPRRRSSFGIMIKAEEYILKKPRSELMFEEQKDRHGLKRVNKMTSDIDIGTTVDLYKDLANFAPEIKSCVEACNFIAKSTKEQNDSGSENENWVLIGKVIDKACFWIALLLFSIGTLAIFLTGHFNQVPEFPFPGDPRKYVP
Sequence of Torpedo muscle-type nicotinic acetylcholine receptors (nAChRs) (P02718 whole entry, looked up): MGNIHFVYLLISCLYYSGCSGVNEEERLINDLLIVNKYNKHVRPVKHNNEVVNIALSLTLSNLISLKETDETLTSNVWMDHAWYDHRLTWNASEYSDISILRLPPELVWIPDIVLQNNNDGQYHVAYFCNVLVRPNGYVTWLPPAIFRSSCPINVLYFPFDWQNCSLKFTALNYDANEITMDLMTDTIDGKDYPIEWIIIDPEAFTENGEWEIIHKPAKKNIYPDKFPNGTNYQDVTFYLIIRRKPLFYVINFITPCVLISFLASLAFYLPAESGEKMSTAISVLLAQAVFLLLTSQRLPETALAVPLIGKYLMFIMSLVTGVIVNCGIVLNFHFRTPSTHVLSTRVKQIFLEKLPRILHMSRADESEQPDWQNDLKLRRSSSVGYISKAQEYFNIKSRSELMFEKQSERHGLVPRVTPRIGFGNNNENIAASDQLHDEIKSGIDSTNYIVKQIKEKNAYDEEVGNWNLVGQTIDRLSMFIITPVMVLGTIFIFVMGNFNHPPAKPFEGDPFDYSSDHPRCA

As usually defined, the IC50 is the concentration that gives 50% inhibition. The low end stands for greater potency, the high end for weaker potency. `CC[C@H](C)[C@H](NC(=O)CNC(=O)[C@H](Cc1ccc(O)cc1)NC(=O)[C@@H](N)[C@@H](C)O)C(=O)N[C@@H](Cc1ccc(O)cc1)C(=O)N[C@@H](CC(=O)O)C(=O)N[C@@H](C)C(=O)N[C@@H](CCCCN)C(=O)N1CCC[C@H]1C(=O)N1C[C@H](O)C[C@H]1C(=O)N[C@@H](Cc1ccccc1)C(=O)N[C@@H](CO)C(=O)N[C@H]1CSSC[C@@H](C(=O)N[C@H](C(=O)N[C@@H](CC(C)C)C(=O)N2CCC[C@H]2C(=O)N2C[C@H](O)C[C@H]2C(=O)N[C@@H](CC(N)=O)C(=O)N[C@@H](CC(C)C)C(=O)N[C@@H](CCCNC(=N)N)C(=O)N2C[C@H](O)C[C@H]2C(=O)N[C@@H](CCCCN)C(=O)N[C@@H](Cc2ccccc2)C(=O)N[C@@H](CCCCN)C(=O)N[C@@H](CCC(=O)O)C(N)=O)C(C)C)NC(=O)CNC(=O)CNC(=O)[C@H](CCCNC(=N)N)NC(=O)[C@H](CC(C)C)NC(=O)CNC(=O)[C@H](C)NC1=O` [αC-conotoxin PrXA] (H-TYGIYDAKP[Hyp]FSCAGLRGGCVLP[Hyp]NLR[Hyp]KFKE-NH2; disulfide 13-20): in data set [1], the “inhibition of [^125I]-α-bungarotoxin binding” value is recorded as “fully inhibited”. In addition, in data set [2], the “effect on contractility force under direct electrical stimulation” value is listed as “did not alter muscle contractility force; also recorded: Lack of toxin effect on direct muscle stimulation”. Further, in data set [3], the “inhibition of muscle contraction” value is “concentration- and time-dependent inhibition of muscle contraction”; the “time to full block of muscle contraction” value worked out at 15 min; the midpoint of inhibition, the IC50, lay at 23 ± 2 nM. In addition, the “D/T (dead/treated mice)” value in data set [4] is reported as 3/3.

As for `CC[C@H](C)[C@H](NC(=O)[C@H](Cc1ccc(O)cc1)NC(=O)[C@H](Cc1c[nH]cn1)NC(=O)[C@@H]1CSSC[C@H](NC(=O)[C@@H]2CCCN2C(=O)[C@H](CCCNC(=N)N)NC(=O)[C@H](CC(C)C)NC(=O)[C@H](CC(=O)O)NC(=O)[C@@H]2CCCN2C(=O)[C@H](CCCCN)NC(=O)CNC(=O)CN)C(=O)N[C@@H](Cc2c[nH]cn2)C(=O)N2CCC[C@H]2C(=O)N2CCC[C@H]2C(=O)N1)C(=O)N1CCC[C@H]1C(=O)N[C@@H](CCCNC(=N)N)C(=O)N1CCC[C@H]1C(=O)N[C@@H](CCCCN)C(=O)N1CCC[C@H]1C(=O)N[C@@H](CCCNC(=N)N)C(=O)O` [Waglerin 1] (H-GGKPDLRPCHPPCHYIPRPKPR-OH; disulfide 9-13), in data set [3], the “maximal block of contraction” value was “full block of contraction”, the “potency relative to αC-conotoxin PrXA” value is on record as “twofold less potent” and the IC50 came out at 58 ± 2 nM.

Consider `CC[C@H](C)[C@H](NC(=O)[C@H](Cc1ccc(O)cc1)NC(=O)[C@H](Cc1cnc[nH]1)NC(=O)[C@@H]1CSSC[C@H](NC(=O)[C@@H]2CCCN2C(=O)[C@H](CCCNC(=N)N)NC(=O)[C@H](CC(C)C)NC(=O)[C@H](CC(=O)O)NC(=O)[C@@H]2CCCN2C(=O)[C@H](CCCCN)NC(=O)CNC(=O)CN)C(=O)N[C@@H](Cc2cnc[nH]2)C(=O)N2CCC[C@H]2C(=O)N2CCC[C@H]2C(=O)N1)C(=O)N1CCC[C@H]1C(=O)N[C@@H](CCCNC(=N)N)C(=O)N1CCC[C@H]1C(=O)N[C@@H](CCCCN)C(=O)N1CCC[C@H]1C(=O)N[C@@H](CCCNC(=N)N)C(=O)O` [Waglerin 1] (H-GGKPDLRPCHPPCHYIPRPKPR-OH; disulfide 9-13), for which, in data set [5], the mice lethality came to 100% and the time to death is on record as ≤ 4.7 ± 0.7 min. Also, the “IC50 (mice death)” value in data set [5] (ip) stood at 0.7 µg/g.
